{"source": "patent US12599674B2", "about": "“Conjugates, their compositions, and their related methods” (THE ADMINISTRATORS OF THE TULANE EDUCATIONAL FUND, priority 2021, dated 2026)", "key": {"[1]": {"test": "Body weights in U-937 xenograft study", "format": "in vivo", "details": "U-937 xenograft SCID mice, tail vein AP3 0.5 mg/kg days 0 and 15 (FIG. 11 legend)", "description": "Female SCID mice (Tyercan, Ltd, Shenzhen) aged at 4-6 weeks-old were purchased and reared in the laboratory animal facility for one week to adapt to the new environment. A total of 5×10^6 human U-937 lymphoma tumor cells (200 μl) were inoculated into the right flank of each mouse by subcutaneous injection. […] […] 100 μl of normal saline was injected via the tail vein in a second control group on the same days. Tumor volumes were measured and mouse bodies were weighed twice a week since the first administration."}, "[2]": {"test_system": "human gastric tumor SGC-7901 cells", "test": "Xenograft mouse model, SGC-7901 tumor growth", "format": "in vivo, BALB/c nude mice", "details": "tail vein; 100 μl containing 0.4 mg of AP-3 on days 0 and 14; nude mice; compared to controls", "description": "Female BALB/c nude mice aged at 4-6 weeks-old were purchased (Tyercan, Ltd, Shenzhen) and reared in the laboratory animal facility for one week to adapt to the new environment. A total of 5×10^6 human gastric tumor SGC-7901 cells (200 μl) were inoculated into the right flank of each mouse by subcutaneous injection. When the tumor sizes reached 100-300 mm^3 (tumor volume=0.5×Length×Width^2), tumor-carrying mice in the experimental group were given (via tail vein injection) a first dose (at day zero) of 100 μl of AP3-HSA 200 mg/kg and a second dose (at day 14) of 150 mg/kg. A control group was injected with 100 μl of AP-3 containing 0.4 mg of AP-3 on days 0 and 14 in a similar fashion. 100 μl of normal saline was injected via the tail vein in a second control group on the same days. Tumor volumes were measured and mouse bodies were weighed twice a week since the first administration."}}, "note": "Entries after “also recorded” stand apart in the source; their conditions may differ."}
{"smiles": "COc1cc2cc(c1Cl)N(C)C(=O)C[C@H](OC(=O)C(C)C)[C@]1(C)O[C@@H]1[C@H](C)[C@@H]1C[C@@](O)(NC(=O)O1)[C@H](OC)/C=C/C=C(\\C)C2", "note": "[AP3, Ansamitocin P3]", "values": [{"measurement": "recovery of body weights after treatment", "setting": "[1]", "value": "returned to normal about a week after the final injections"}, {"measurement": "effect on body weights", "setting": "[1]; 0.5 mg/kg", "value": "decreases in body weight; also recorded: weight losses"}, {"measurement": "effect on growth of SGC-7901 tumors", "setting": "[2]", "value": "only marginally effective"}]}
